Measured values reported in patent US20210052532A1, “COMPOSITIONS AND METHODS FOR TREATMENT OF INSULIN RESISTANCE” (TEMPLE UNIVERSITY - OF THE COMMONWEALTH SYSTEM OF HIGHER …, priority 2018, published 2021).

How the values were obtained:
3T3-L1 adipocytes [1] = assay: Insulin-stimulated glucose uptake in 3T3-L1 adipocytes, measured by MRM; type: cell-based; details: 3T3-L1 adipocytes treated 4 hr with 20 M (so in the source) of 4-HNE or H2O2 or both, then 100 nM insulin 60 min; FIG. 4 legend: 4-HNE 20 μM, H2O2 100 μM
Method: FIG. 4 graphically depicts glucose transport impairment in 3T3-L1 cells when exposed to 4-HNE (20 μM) and/or H2O2 (100 μM) for 4 hr.
(§1) GLUT4 carbonylations impair its function. To directly link the function impairment due to GLUT4 carbonylations to insulin resistance in vitro, GLUT4-SNAP fusion construct were generated and retroviral transduction in 3T3-L1 adipocytes were performed to overexpress the GLUT4-SNAP protein. Twenty-four hours after the transduction, the cells were treated with and without 20 μM of 4-HNE for an additional 4h. This 4-HNE dose was chosen because it was similar to the physiological levels and was non-toxic. […] 3T3-L1 adipocytes were treated with either 20 M of 4-HNE or H2O2 or the combination of both for 4 hr and were then stimulated with 100 nM insulin for 60 min. The glucose uptake was measured by an MRM method.

3T3-L1 adipocytes [2] = assay: Toxicity of the 4-HNE dose to the treated cells; type: cell-based; details: 20 μM of 4-HNE, 4h, transduced 3T3-L1 adipocytes
Method: as §1

GLUT4-SNAP protein = assay: Formation of K264-HNE GLUT4 adduct in 3T3-L1 cells overexpressing GLUT4-SNAP (MRM); type: cell-based; details: 4-HNE 20 μM for 4 hr, FIG. 3
From the text: FIG. 3 provides typical MRM data showing an increase in the transitions of HNE-induced K264-HNE adduct (left panel) which were used to calculate the amounts of carbonylated GLUT4 (right panel). Four transitions of the GLUT4 peptide found in humans are shown. The sequence of the carbonylated GLUT4 peptide LTGWADVSGVLAELKDEK-4HNE (SEQ ID NO:1) is depicted.
Certain conditions such as overnutrition can lead to oxidative stress, and the generation of reactive aldehydes such as 4-HNE, which react with cysteine, lysine and histidine residues of proteins via Michael addition and Schiff base formation. 4-HNE can form HNE-Michaels adducts on GLUT4, the major insulin-facilitated glucose transporter in adipose tissue. 3T3-L1 adipocytes retrovirally transduced to overexpress the GLUT4-SNAP protein formed a K264-HNE GLUT4 adduct upon treatment with 4-HNE. The same K264-HNE GLUT4 adduct is elevated in the fat tissue of human pre-diabetic and diabetic individuals.
GLUT4 carbonylations impair its function. To directly link the function impairment due to GLUT4 carbonylations to insulin resistance in vitro, GLUT4-SNAP fusion construct were generated and retroviral transduction in 3T3-L1 adipocytes were performed to overexpress the GLUT4-SNAP protein. […] The glucose uptake was measured by an MRM method.

adipocyte glucose uptake = assay: Overnutrition-induced adipocyte glucose uptake impairment; type: cell-based; details: adipocytes
From the text: (§2) Without wishing to be bound by any theory, compounds of Formula I-III form adducts with reactive aldehydes such as 4-HNE, thereby diverting 4-HNE from damaging proteins such as GLUT-4, by carbonylation. […] Restoration of GLUT-4 function results in enhancement or restoration of adipocyte insulin sensitivity and the resumption or enhancement of glucose uptake.

[3] = Adduct formation with the reactive aldehyde 4-HNE; details: diverts 4-HNE from damaging GLUT-4 by carbonylation
From the text: as §2

Structure (SMILES): OO [Example H2O2]
- glucose uptake reduced / decrease in the glucose uptake (3T3-L1 adipocytes [1]): 66%

Structure (SMILES): CCCCCC(O)/C=C/C=O (stereo not drawn) [Example 4-HNE, 4-hydroxynonenal]
- glucose uptake reduced / decrease in the glucose uptake (3T3-L1 adipocytes [1]): 32%
- toxicity of dose (3T3-L1 adipocytes [2]): non-toxic
- formation of the K264-HNE adduct (GLUT4-SNAP protein): induced the formation of the K264-HNE adduct

Structure (SMILES): Cl.Cl.NCCCNCCCC[C@H](N)C(=O)O [Example 4, (S)-2-amino-6-((3-aminopropyl)amino)hexanoic acid dihydrochloride]
- effect on glucose uptake impairment (adipocyte glucose uptake): reversing overnutrition-induced glucose uptake impairment
- adduct formation with 4-HNE [3]: forms an adduct with 4-HNE
